Structures can show the parent of a compound that is named as a salt.
Legend:
[1] = Chem. Ab., 79: 146294b; cited from earlier work
dopamine autoreceptors = settings: background, result in words; cited from earlier work
[2] = man, low doses; result in words; cited from earlier work
[3] = biological target: T1, 5-hydroxytryptamine (5-HT1A) receptor (Bos taurus, UniProt F6Q2H9); assay: Inhibition of 8-OH-DPAT binding in a bovine brain homogenate (5-HT1A binding)
T1 construct: from tissue; host or cells: bovine brain homogenate
T1 sequence (F6Q2H9 1-422): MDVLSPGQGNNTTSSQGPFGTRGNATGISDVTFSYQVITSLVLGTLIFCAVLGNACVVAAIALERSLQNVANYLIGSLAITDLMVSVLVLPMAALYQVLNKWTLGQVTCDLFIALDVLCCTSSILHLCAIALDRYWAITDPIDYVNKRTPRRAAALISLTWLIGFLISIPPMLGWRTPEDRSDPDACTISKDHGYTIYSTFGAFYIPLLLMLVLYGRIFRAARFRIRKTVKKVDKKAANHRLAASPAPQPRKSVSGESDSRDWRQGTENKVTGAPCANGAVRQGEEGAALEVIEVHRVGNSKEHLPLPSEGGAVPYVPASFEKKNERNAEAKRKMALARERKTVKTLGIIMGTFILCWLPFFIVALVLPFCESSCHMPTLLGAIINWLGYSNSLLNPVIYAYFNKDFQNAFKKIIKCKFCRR
Source text: Binding: Inhibition of 8-OH-DPAT binding in a bovine brain homogenate. Potency is given as nM dose required to inhibit 50% of DPAT binding (IC50). This test measures ability to bind to 5-hydroxytryptamine (5-HT1A) receptor.

[4] = Hypothermia in mice (s.c.); assay type: in vivo; settings: subcutaneous, dose required to depress temperature by 2° C. in two of four mice; for ED50: Mus musculus, sc
Description: Hypothermia: Starting with a dose of 30 mg/kg, four mice are injected subcutaneously with test compound. Twenty minutes later, the number of animals whose body temperature has decreased by 2° C. or more are counted. If all four animals reach criteria, the drug is considered "active", and subsequent readings are taken at 60 and 120 minutes after drug. The time for last statistically significant drug affect on mean body temperature is indicated in minutes. […] Potency is given as mg/kg ED50 (dose required to depress temperature in two of four mice) as measured by Spearman-Karber statistics.

[5] = J. Pharm. Sci., 67, 880-82 (1978); cited from earlier work
[6] = some patients; result in words; cited from earlier work
dopamine receptors = settings: background, result in words; cited from earlier work
[7] = system: Sympathetic Nerve Discharge; assay: Sympathetic Nerve Discharge (SND) in chloralose anesthetized cats; assay type: in vivo; settings: for Max. Decr. SND %: maximum inhibition of sympathetic activity in dose range 0.001-1.0 mg/kg i.v., cats
Description: Sympathetic Nerve Discharge (SND): The i.v. mg/kg dose causing a 50% depression in SND in chloralose anesthetized cats and the maximum inhibition of sympathetic activity observed in the dose range tested (0.00 1-1.0 mg/kg i.v. ).

[8] = BP SND/MAX: blood pressure of chloralose anesthetized cats; assay type: in vivo; settings: for % BP Control: blood pressure in percent control at the dose causing 50% depression in SND, cats i.v.; for Max. Decr. BP (at SND ED50): maximum reduction in blood pressure as percent of control, 0.001-1.0 mg/kg i.v., cats
Description: BP SND/MAX: The blood pressure of the chloralose anesthetized cats in percent control at the dose causing 50% depression in SND and the maximum reduction in blood pressure as percent of the control blood pressure in the same animals observed in the dose range tested (0.001-1.0 mg/kg i.v.).

5-HT1A receptor [9] = assay: Selectivity, IC50 ratio of dopamine D2 to 5-HT1A in vitro binding; settings: result in words
Source text: (§1) The compounds of this invention where R1 is in 8-position in the aromatic ring are very selective 5-HT1A receptor agonists having generally little or no dopaminergic activity. […] The compound of this invention where R1 is in 5-position in the aromatic ring, on the other hand, have dopaminergic activity with little 5-HT1A agonist activity. […] These compounds are particularly effective anxiolytic and antidepressant agents. Other uses for these compounds include panic attacks, obsessive-compulsive disturbances, and senile dementia particularly the emotional disturbances seen in dementia disorders. In addition, central 5 -HT receptor activation are believed to be involved in mediating sexual behavior. These compounds would be useful to stimulate sexual activity and to alleviate impotence. The compounds of this invention are also useful to alleviate aggressive behavior, confusional delirious states.

5-HT1A receptor [10] = assay: 5-HT1A agonist activity; settings: result in words
Source text: as §1

dopamine = assay: Dopamine activity (evaluation of dopamine and serotonin metabolites); settings: result in words
Source text: as §1

Q: Which “analgesic and intestinal movement accelerating actions” value [1] does the source give for `CN(C)C1CCc2ccc(O)cc2C1(C)C` (stereo not drawn) [1,1-Dimethyl-2-(N,N-dimethylamino)-7-hydroxytetralin] here?
A: analgesic and intestinal movement accelerating actions

Q: With `CN1CCc2cccc3c2[C@H]1Cc1ccc(O)c(O)c1-3` [apomorphine] as the molecule, how does the “activation of dopamine autoreceptors and post synaptic dopamine receptors” value (dopamine autoreceptors) read?
A: able to activate the dopamine autoreceptors as well as the post synaptic dopamine receptors

Q: And the “anti-psychotic and anti-dyskinetic effects” value [2]?
A: anti-psychotic and anti-dyskinetic effects in man

Q: With `C=CCN1[C@H](C)C[C@H]2c3c(O)cccc3CC[C@H]21` (relative stereo) [Example 2 Compound #1, (+-)-2α,3,3a,α,4,5,9b,α-hexahydro-2-methyl-3-(2-propenyl)-1H-benz[e]indol-9-ol hydrochloride] as the molecule, how does the IC50 [3] read?
A: 0.96 nM

Q: What about the ED50 [4] of the same molecule?
A: 5.5 mg/kg

Q: With `COc1cccc2c1CCC(NC1CC1)C2C` (stereo not drawn) [1-methyl-2-(cyclopropylamino)-5-methoxytetralin] as the molecule, how does the local anesthetic activity [5] read?
A: local anesthetic activity

Q: What does the source list for `CC1(C)CC(=O)N(CCCCN2CCN(c3ncccn3)CC2)C(=O)C1` [Gepirone]?
A: effects on depressive endpoints [6]: ameliorative effects on some depressive endpoints in some patients; dopamine receptor antagonism (dopamine receptors): dopamine antagonist properties

Q: Which IC50 [3] does the source give for “(+-)-1,2,2a,-3,4,8b-hexahydro-8-methoxy-2-(prop-2-en-1-yl)-naphtho[2, 1-B]azetidine hydrochloride [Example 5 Compound #1]” here?
A: 14.8 nM

Q: And the “Hypothermia ED50” value [4]?
A: 4.1 mg/kg

Q: And the “SND ED50” value ([7]; i.v. dose causing 50% depression in SND, chloralose anesthetized cats)?
A: 0.083 mg/kg

Q: And the “Max. Decr. SND %” value [7]?
A: 14.0%

Q: What about the “% BP Control” value [8] of the same molecule?
A: 77%

Q: And the “Max. Decr. BP (at SND ED50)” value [8]?
A: 59%

Q: Which dopamine receptor antagonism (dopamine receptors) does the source give for `O=C1CC2(CCCC2)CC(=O)N1CCCCN1CCN(c2ncccn2)CC1` [Buspirone] here?
A: antagonizes dopamine receptors at the same dose it stimulates 5-HT1A receptors

Q: What does the source list for `C=CCN1CC[C@@H]2c3ccccc3CC[C@@H]21.Cl` (racemic) [Example 4 Compound #1, Cis-(+-)-2,3,3a,4,5,9b-hexahydro-3-(2-propenyl)-1H-benz[e]indole hydrochloride]?
A: ED50 ([7]; Felis catus, iv, i.v. dose causing 50% depression in SND, chloralose anesthetized cats): 0.09 mg/kg; Max. Decr. SND % [7]: 0.0%; % BP Control [8]: 76%; Max. Decr. BP (at SND ED50) [8]: 60%

Q: Which IC50 [3] does the source give for `C=CCN1CC[C@@H]2c3c(cccc3OC)CC[C@@H]21` (racemic) [Example 4 Compound #2, cis-(+-)-2,3,3a,4,5,9b-hexahydro-9-methoxy-3-(2-propenyl)-1H-benz[e]indole hydrochloride] here?
A: 2.8 nM

Q: And the ED50 [4]?
A: 2.3 mg/kg

Q: And the “selectivity for the 5-HT1A receptor” value (5-HT1A receptor [9])?
A: demonstrates the selectivity for the 5-HT1A receptor

Q: Which results are given for `C=CCN1CC[C@@H]2c3cccc(OC)c3CC[C@@H]21.Cl` (racemic) [Example 4 Compound #3, Cis-(+-)-2,3,3a,4,5,9b-hexahydro-6-methoxy-3-(2-propenyl)-1H-benz[e]indole hydrochloride]?
A: 5-HT1A agonist activity (5-HT1A receptor [10]): low 5-HT1A agonist activity; IC50 [3]: 628 nM; ED50 [4]: 30 mg/kg; dopamine activity (dopamine; hydrochloride): good selective dopamine activity; dopamine activity (dopamine; listed as Example 4, compound #3, hydrochloride): selective dopamine antagonist activity

From patent publication US5491236A, “(1,2N) and (3,2N)-carbocyclic-2-amino tetralin derivatives” (The Upjohn Company, priority 1991, dated 1996)
